Results from patent US20230002397A1, “SMALL MOLECULE DEGRADERS OF HELIOS AND METODS OF USE” (DANA-FARBER CANCER INSTITUTE, INC., priority 2019, published 2023).

Biological target: T1, IKZF2 (Homo sapiens, UniProt Q96SW2+Q9UKS7)
T1 construct: CRISPR/Cas9—mediated insertion of the HiBiT peptide tag (Promega™) to the N-terminus of the IKZF2 gene locus; endogenous in cells; host or cells: MOLT4 cells, with CRISPR/Cas9 knock-in of HiBiT at the endogenous IKZF2 locus
Assay: HiBit-IKZF2 assay (HiBiT-Helios degradation in MOLT4 cells)
Type: cell-based
Settings: for Dmax: MOLT-4, extent of degradation from highest to lowest concentration, 10 μM to 0.00026 μM, read-out: Dmax; for DC50: concentration at which 50% of HiBiT-Helios degradation was achieved
Method in brief: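 MOLT4 cells carried an endogenous N-terminal HiBiT tag on IKZF2, knocked in by CRISPR. Cells were treated in triplicate at 13 concentrations (10 μM–0.00026 μM), and remaining HiBiT-Helios was read by lytic luminescence at set timepoints. Data were normalized to DMSO to give the 50% degradation concentration, with Dmax taken from the luminescence range.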

T1 sequence (Q9UKS7 whole entry): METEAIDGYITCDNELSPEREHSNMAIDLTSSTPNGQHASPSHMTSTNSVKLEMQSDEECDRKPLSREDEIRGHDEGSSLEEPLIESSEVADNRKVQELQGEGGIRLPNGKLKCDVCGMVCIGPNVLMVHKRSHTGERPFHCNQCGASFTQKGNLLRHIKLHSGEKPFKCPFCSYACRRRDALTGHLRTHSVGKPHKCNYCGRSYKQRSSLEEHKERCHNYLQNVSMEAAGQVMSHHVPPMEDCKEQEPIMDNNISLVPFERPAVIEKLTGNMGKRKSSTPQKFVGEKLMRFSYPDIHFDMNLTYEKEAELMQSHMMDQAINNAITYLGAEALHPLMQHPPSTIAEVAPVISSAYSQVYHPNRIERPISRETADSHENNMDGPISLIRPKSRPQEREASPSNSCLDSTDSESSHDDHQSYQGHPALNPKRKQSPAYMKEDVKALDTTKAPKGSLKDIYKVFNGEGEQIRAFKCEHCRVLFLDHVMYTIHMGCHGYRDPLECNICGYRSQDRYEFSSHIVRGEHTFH
T1 sequence (Q96SW2 whole entry): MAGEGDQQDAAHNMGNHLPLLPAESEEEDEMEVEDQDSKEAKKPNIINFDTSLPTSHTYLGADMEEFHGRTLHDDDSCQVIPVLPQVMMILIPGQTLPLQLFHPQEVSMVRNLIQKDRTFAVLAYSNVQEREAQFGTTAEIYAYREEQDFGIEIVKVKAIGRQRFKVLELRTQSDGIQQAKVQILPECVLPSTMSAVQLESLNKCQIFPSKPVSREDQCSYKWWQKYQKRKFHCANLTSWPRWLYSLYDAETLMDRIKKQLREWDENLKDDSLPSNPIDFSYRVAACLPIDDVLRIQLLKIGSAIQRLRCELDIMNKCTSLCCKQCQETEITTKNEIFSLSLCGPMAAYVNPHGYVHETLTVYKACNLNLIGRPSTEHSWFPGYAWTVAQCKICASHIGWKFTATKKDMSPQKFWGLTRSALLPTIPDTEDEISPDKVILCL
T1 sequence (Q16531 whole entry partner): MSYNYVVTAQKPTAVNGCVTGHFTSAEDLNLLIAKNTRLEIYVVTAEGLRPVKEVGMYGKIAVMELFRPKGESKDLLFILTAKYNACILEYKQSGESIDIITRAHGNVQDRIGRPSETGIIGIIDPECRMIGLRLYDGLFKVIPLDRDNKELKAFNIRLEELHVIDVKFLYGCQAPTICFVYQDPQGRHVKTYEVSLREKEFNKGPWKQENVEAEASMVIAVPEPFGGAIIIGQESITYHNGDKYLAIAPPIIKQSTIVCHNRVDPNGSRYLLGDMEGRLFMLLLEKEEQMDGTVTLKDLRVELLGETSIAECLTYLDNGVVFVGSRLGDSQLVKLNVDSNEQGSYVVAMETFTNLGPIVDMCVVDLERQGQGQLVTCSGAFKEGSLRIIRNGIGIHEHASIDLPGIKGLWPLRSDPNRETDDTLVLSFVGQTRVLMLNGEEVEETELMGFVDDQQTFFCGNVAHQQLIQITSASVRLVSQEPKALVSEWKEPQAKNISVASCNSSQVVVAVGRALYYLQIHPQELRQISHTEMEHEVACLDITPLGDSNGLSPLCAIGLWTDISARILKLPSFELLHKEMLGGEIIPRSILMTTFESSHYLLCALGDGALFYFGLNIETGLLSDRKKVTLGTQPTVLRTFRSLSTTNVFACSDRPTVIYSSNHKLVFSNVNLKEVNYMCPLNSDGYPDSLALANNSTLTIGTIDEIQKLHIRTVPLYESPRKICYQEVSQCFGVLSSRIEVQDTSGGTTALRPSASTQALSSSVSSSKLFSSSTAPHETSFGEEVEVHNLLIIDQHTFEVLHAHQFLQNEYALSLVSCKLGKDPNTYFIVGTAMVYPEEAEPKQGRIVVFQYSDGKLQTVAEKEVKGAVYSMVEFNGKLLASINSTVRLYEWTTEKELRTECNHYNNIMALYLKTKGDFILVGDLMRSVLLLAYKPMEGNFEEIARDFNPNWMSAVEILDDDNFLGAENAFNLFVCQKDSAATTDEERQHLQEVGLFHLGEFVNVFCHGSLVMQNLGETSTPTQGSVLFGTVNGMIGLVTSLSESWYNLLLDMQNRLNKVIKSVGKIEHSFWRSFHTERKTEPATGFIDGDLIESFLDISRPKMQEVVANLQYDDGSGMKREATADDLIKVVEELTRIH

**Q.** With `O=C1CCC(N2Cc3cc(C4(O)CCN(Cc5ccccc5C(F)(F)F)CC4)ccc3C2=O)C(=O)N1` (stereo not shown) [Compound 249] as the compound, how does the Dmax read?
**A.** The Dmax was > 70%.

**Q.** What about the DC50 of the same compound?
**A.** The DC50 was < 10 nM.

**Q.** For `O=C1CCC(N2Cc3cc(C4(O)CCN(Cc5cccc(C(F)(F)F)c5)CC4)ccc3C2=O)C(=O)N1` (stereo not shown) [Compound 250], which Dmax is on record?
**A.** The Dmax was > 70%.

**Q.** What about the DC50 of the same compound?
**A.** The DC50 was < 10 nM.

**Q.** With `O=C1CCC(N2Cc3cc(C4(O)CCN(Cc5ccc(C(F)(F)F)cc5)CC4)ccc3C2=O)C(=O)N1` (stereo not shown) [Compound 251] as the compound, how does the Dmax read?
**A.** Its Dmax is > 70%.

**Q.** What about the DC50 of the same compound?
**A.** The DC50 was < 10 nM.

**Q.** Which Dmax does the source give for `O=C1CCC(N2Cc3cc(C4(O)CCN(Cc5ccccc5Oc5ccccc5)CC4)ccc3C2=O)C(=O)N1` (stereo not shown) [Compound 252] here?
**A.** Its Dmax is > 70%.

**Q.** What about the DC50 of the same compound?
**A.** Its DC50 is < 10 nM.

**Q.** Which Dmax does the source give for `O=C1CCC(N2Cc3cc(C4(O)CCN(Cc5ccc(Oc6ccccc6)cc5)CC4)ccc3C2=O)C(=O)N1` (stereo not shown) [Compound 253] here?
**A.** Its Dmax is 50 to 70%.

**Q.** What about the DC50 of the same compound?
**A.** The DC50 was < 10 nM.

**Q.** How did the Dmax turn out when `O=C1CCC(N2Cc3cc(C4(O)CCN(Cc5cccc(F)c5Cl)CC4)ccc3C2=O)C(=O)N1` (stereo not shown) [Compound 254] was run?
**A.** The Dmax was > 70%.

**Q.** And the DC50?
**A.** The DC50 was < 10 nM.

**Q.** `O=C1CCC(N2Cc3cc(C4(O)CCN(Cc5ccc(F)c(Cl)c5)CC4)ccc3C2=O)C(=O)N1` (stereo not shown) [Compound 255] was tested. Which Dmax did it give?
**A.** Its Dmax is > 70%.

**Q.** And the DC50?
**A.** The DC50 was < 10 nM.

**Q.** With `O=C1CCC(N2Cc3cc(C4(O)CCN(Cc5ccccc5F)CC4)ccc3C2=O)C(=O)N1` (stereo not shown) [Compound 256] as the compound, how does the Dmax read?
**A.** The Dmax was > 70%.

**Q.** What about the DC50 of the same compound?
**A.** Its DC50 is < 10 nM.

**Q.** For `O=C1CCC(N2Cc3cc(C4(O)CCN(Cc5cccc(F)c5)CC4)ccc3C2=O)C(=O)N1` (stereo not shown) [Compound 257], which Dmax is on record?
**A.** Its Dmax is > 70%.

**Q.** What about the DC50 of the same compound?
**A.** The DC50 was < 10 nM.

**Q.** Which Dmax does the source give for `O=C1CCC(N2Cc3cc(C4(O)CCN(Cc5ccc(F)cc5)CC4)ccc3C2=O)C(=O)N1` (stereo not shown) [Compound 258] here?
**A.** Its Dmax is > 70%.

**Q.** What about the DC50 of the same compound?
**A.** Its DC50 is < 10 nM.

**Q.** `O=C1CCC(N2Cc3cc(C4(O)CCN(Cc5nc6ccccc6s5)CC4)ccc3C2=O)C(=O)N1` (stereo not shown) [Compound 260] was tested. Which Dmax did it give?
**A.** Its Dmax is 50 to 70%.

**Q.** And the DC50?
**A.** Its DC50 is 10 to 30 nM.

**Q.** `COc1cccc(CN2CCC(O)(c3ccc4c(c3)CN(C3CCC(=O)NC3=O)C4=O)CC2)c1` (stereo not shown) [Compound 261] was tested. Which Dmax did it give?
**A.** The Dmax was > 70%.

**Q.** And the DC50?
**A.** The DC50 was < 10 nM.

**Q.** For `COc1ccc(CN2CCC(O)(c3ccc4c(c3)CN(C3CCC(=O)NC3=O)C4=O)CC2)cc1` (stereo not shown) [Compound 262], which Dmax is on record?
**A.** The Dmax was 50 to 70%.

**Q.** And the DC50?
**A.** Its DC50 is 10 to 30 nM.

**Q.** What does the source list for `COc1ccccc1CN1CCC(O)(c2ccc3c(c2)CN(C2CCC(=O)NC2=O)C3=O)CC1` (stereo not shown) [Compound 263]?
**A.** Dmax: > 70%; DC50: < 10 nM

**Q.** What does the source list for `Cc1cccc(CN2CCC(O)(c3ccc4c(c3)CN(C3CCC(=O)NC3=O)C4=O)CC2)c1` (stereo not shown) [Compound 264]?
**A.** Dmax: > 70%; DC50: < 10 nM

**Q.** What does the source list for `Cc1ccccc1CN1CCC(O)(c2ccc3c(c2)CN(C2CCC(=O)NC2=O)C3=O)CC1` (stereo not shown) [Compound 265]?
**A.** Dmax: > 70%; DC50: < 10 nM

**Q.** `Cc1ccc(CN2CCC(O)(c3ccc4c(c3)CN(C3CCC(=O)NC3=O)C4=O)CC2)cc1` (stereo not shown) [Compound 266] was tested. Which Dmax did it give?
**A.** Its Dmax is > 70%.

**Q.** And the DC50?
**A.** Its DC50 is < 10 nM.

**Q.** Which Dmax does the source give for `O=C1CCC(N2Cc3cc(C4(O)CCN(Cc5ccccc5Cl)CC4)ccc3C2=O)C(=O)N1` (stereo not shown) [Compound 267] here?
**A.** The Dmax was > 70%.

**Q.** What about the DC50 of the same compound?
**A.** Its DC50 is < 10 nM.

**Q.** `O=C1CCC(N2Cc3cc(C4(O)CCN(Cc5ccc(Cl)cc5)CC4)ccc3C2=O)C(=O)N1` (stereo not shown) [Compound 268] was tested. Which Dmax did it give?
**A.** Its Dmax is > 70%.

**Q.** And the DC50?
**A.** Its DC50 is < 10 nM.

**Q.** `CC(c1ccccc1)N1CCC(O)(c2ccc3c(c2)CN(C2CCC(=O)NC2=O)C3=O)CC1` (stereo not shown) [Compound 269] was tested. Which Dmax did it give?
**A.** The Dmax was > 70%.

**Q.** What about the DC50 of the same compound?
**A.** The DC50 was < 10 nM.

**Q.** What does the source list for `O=C1CCC(N2Cc3cc(C4(O)CCN(Cc5ccc(C6CC6)cc5)CC4)ccc3C2=O)C(=O)N1` (stereo not shown) [Compound 270]?
**A.** Dmax: > 70%; DC50: < 10 nM

**Q.** For `O=C1CCC(N2Cc3cc(C4(O)CCN(Cc5ccc6c(c5)OC(F)(F)O6)CC4)ccc3C2=O)C(=O)N1` (stereo not shown) [Compound 271], which Dmax is on record?
**A.** The Dmax was > 70%.

**Q.** What about the DC50 of the same compound?
**A.** The DC50 was < 10 nM.

**Q.** Which results are given for `O=C1CCC(N2Cc3cc(C4(O)CCN(Cc5ccc6c(c5)OCCCO6)CC4)ccc3C2=O)C(=O)N1` (stereo not shown) [Compound 272]?
**A.** Dmax: > 70%; DC50: < 10 nM

**Q.** What does the source list for `O=C1CCC(N2Cc3cc(C4(O)CCN(Cc5cccc(-c6ccccc6)c5)CC4)ccc3C2=O)C(=O)N1` (stereo not shown) [Compound 273]?
**A.** Dmax: > 70%; DC50: < 10 nM

**Q.** For `O=C1CCC(N2Cc3cc(C4(O)CCN(Cc5ccccc5-c5ccccc5)CC4)ccc3C2=O)C(=O)N1` (stereo not shown) [Compound 274], which Dmax is on record?
**A.** Its Dmax is 50 to 70%.

**Q.** What about the DC50 of the same compound?
**A.** The DC50 was < 10 nM.

**Q.** For `O=C1CCC(N2Cc3cc(C4(O)CCN(Cc5ccc6c(c5)CCCO6)CC4)ccc3C2=O)C(=O)N1` (stereo not shown) [Compound 275], which Dmax is on record?
**A.** Its Dmax is > 70%.

**Q.** What about the DC50 of the same compound?
**A.** Its DC50 is < 10 nM.

**Q.** With `O=C1CCC(N2Cc3cc(C4(O)CCN(Cc5ccccc5OCc5ccccc5)CC4)ccc3C2=O)C(=O)N1` (stereo not shown) [Compound 276] as the compound, how does the Dmax read?
**A.** Its Dmax is 50 to 70%.

**Q.** And the DC50?
**A.** The DC50 was < 10 nM.

**Q.** Which results are given for `O=C1CCC(N2Cc3cc(C4(O)CCN(Cc5cccc(OCc6ccccc6)c5)CC4)ccc3C2=O)C(=O)N1` (stereo not shown) [Compound 277]?
**A.** Dmax: > 70%; DC50: < 10 nM

**Q.** What does the source list for `Cc1ccc(C)n1-c1ccc(CN2CCC(O)(c3ccc4c(c3)CN(C3CCC(=O)NC3=O)C4=O)CC2)cc1` (stereo not shown) [Compound 278]?
**A.** Dmax: > 70%; DC50: 10 to 30 nM

**Q.** Which results are given for `O=C1CCC(N2Cc3cc(C4(O)CCN(Cc5ccc6ncccc6c5)CC4)ccc3C2=O)C(=O)N1` (stereo not shown) [Compound 279]?
**A.** Dmax: > 70%; DC50: < 10 nM

**Q.** Which Dmax does the source give for `O=C1CCC(N2Cc3cc(C4(O)CCN(Cc5cccc6cccnc56)CC4)ccc3C2=O)C(=O)N1` (stereo not shown) [Compound 280] here?
**A.** Its Dmax is > 70%.

**Q.** And the DC50?
**A.** The DC50 was 10 to 30 nM.

**Q.** Which Dmax does the source give for `O=C1CCC(N2Cc3cc(C4(O)CCN(Cc5cccc(-c6nccs6)c5)CC4)ccc3C2=O)C(=O)N1` (stereo not shown) [Compound 281] here?
**A.** Its Dmax is > 70%.

**Q.** And the DC50?
**A.** The DC50 was < 10 nM.
